Where two headings read alike, the source gives them in different places.
Key:
[1] = target: GST-tagged PIK3Cδ in complex with PIK3R1 (Homo sapiens, UniProt O00329); test: PI3Kδ HTRF binding assay; conditions: read-out: PIK3CD IC50
[2] = target: T1, His-GST-TVMV-hRIPK1(1-324) (Homo sapiens, UniProt Q13546); test: biochemical; type: binding
T1 construct: The coding region of human RIPK1(1-324) flanked by NdeI site at 5′ end; made in house; host or cells: Spodoptera frugiperda Sf9 insect cells (baculovirus, Bac-to-Bac)
T1 sequence (Q13546 1-324): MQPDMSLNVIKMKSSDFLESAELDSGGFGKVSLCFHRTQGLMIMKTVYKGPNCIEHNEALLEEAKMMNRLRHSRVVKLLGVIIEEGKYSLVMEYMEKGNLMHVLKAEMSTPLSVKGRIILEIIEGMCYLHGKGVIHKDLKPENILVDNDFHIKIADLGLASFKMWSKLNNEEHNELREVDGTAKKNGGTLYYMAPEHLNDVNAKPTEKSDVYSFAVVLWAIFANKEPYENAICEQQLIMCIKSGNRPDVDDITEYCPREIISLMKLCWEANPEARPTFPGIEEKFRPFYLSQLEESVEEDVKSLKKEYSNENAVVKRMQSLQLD

[3] = test system: MLKL phosphorylation in HT29-L23 human colorectal adenocarcinoma cells; test: MLKL phosphorylation high-content assay; type: cell-based
[4] = HTRF probe displacement, 1 h at rt
[5] = HTRF probe displacement, 1 h at rt, read-out: RIPK1 IC50
[6] = read-out: pMLKL IC50, HT29-L23 cells, necroptosis induced with TNFα, SMAC mimetic and Z-VAD, 6 h, maximal inhibition defined by Nec1s
[7] = Homo sapiens, 6 h, read-out: pMLKL IC50, HT29-L23 cells, necroptosis induced with TNFα, SMAC mimetic and Z-VAD, 6 h, maximal inhibition defined by Nec1s
[8] = Table 22, compounds of the present invention, read-out: RPIK1 IC50

GST-tagged PIK3Cδ in complex with PIK3R1, sequence (O00329 whole entry): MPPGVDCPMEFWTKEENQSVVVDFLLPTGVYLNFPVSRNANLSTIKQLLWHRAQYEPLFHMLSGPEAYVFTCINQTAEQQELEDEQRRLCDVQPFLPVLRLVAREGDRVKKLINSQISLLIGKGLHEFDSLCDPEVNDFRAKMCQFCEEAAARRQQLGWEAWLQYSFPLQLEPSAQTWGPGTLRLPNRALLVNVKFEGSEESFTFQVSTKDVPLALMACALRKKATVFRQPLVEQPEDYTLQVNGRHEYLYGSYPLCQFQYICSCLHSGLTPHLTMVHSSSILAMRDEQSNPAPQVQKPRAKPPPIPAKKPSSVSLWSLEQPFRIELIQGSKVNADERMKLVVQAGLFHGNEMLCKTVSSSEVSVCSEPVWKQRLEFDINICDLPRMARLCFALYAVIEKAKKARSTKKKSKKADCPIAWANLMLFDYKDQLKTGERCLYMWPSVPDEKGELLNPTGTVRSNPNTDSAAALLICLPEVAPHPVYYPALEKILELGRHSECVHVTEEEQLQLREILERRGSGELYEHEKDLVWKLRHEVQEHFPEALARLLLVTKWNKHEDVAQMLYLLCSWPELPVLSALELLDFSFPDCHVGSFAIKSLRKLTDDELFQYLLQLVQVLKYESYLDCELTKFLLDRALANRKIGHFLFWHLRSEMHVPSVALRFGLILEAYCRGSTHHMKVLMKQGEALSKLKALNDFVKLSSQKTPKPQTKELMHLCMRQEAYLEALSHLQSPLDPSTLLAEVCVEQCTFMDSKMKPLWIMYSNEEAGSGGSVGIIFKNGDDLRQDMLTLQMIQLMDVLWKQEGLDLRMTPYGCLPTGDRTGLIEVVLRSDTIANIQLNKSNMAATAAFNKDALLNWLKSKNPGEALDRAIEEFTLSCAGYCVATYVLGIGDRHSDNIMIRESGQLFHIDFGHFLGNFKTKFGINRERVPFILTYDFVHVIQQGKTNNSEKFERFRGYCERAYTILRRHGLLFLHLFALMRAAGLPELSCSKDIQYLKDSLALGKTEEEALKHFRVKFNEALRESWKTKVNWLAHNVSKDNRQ
GST-tagged PIK3Cδ in complex with PIK3R1, sequence (P27986 whole entry partner): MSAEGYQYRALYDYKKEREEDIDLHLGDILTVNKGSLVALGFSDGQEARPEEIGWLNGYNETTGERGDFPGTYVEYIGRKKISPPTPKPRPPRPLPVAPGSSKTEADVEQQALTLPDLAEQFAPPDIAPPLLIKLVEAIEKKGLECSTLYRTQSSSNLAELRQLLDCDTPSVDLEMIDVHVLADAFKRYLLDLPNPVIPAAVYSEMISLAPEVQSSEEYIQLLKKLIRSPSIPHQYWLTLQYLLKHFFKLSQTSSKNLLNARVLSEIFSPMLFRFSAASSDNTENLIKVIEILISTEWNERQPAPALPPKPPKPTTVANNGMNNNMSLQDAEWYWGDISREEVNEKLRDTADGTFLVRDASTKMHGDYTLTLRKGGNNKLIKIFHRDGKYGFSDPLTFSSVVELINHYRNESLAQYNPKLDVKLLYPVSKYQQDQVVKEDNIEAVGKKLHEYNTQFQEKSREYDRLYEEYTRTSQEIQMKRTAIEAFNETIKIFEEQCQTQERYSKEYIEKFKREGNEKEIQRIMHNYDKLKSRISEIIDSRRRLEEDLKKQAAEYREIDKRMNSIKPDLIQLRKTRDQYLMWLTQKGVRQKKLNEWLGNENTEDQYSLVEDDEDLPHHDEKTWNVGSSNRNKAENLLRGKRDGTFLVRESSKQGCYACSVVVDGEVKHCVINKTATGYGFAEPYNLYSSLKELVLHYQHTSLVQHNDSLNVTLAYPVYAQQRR

Compound | IC50 [1, 4] | IC50 [2, 5] | IC50 [3, 6] | IC50 [3, 7] | IC50 [2, 8] | IC50 ([3]; read-out: pMLKL IC50, Table 22, compounds of the present invention) | IC50 ([3]; Homo sapiens, 6 h, HT29-L23 cells, necroptosis induced with TNFα, SMAC mimetic and Z-VAD, 6 h, maximal inhibition defined by Nec1s, read-out: pMLKL IC50) | IC50 ([3]; Homo sapiens, Table 22, compounds of the present invention, read-out: pMLKL IC50) | IC50 [1]
Cc1ccc(-c2ccn3nc(N)nc3c2)c(F)c1C(=O)NCCC(O)c1ccc(F)cc1 (single isomer, unassigned) [Example 51, 3-(2-amino-[1,2,4]triazolo[1,5-a]pyridin-7-yl)-2-fluoro-N-(3-(4-fluorophenyl)-3-hydroxypropyl)-6-methylbenzamide] | > 15000 nM | 3.7 nM | 1.8 nM | – | – | – | – | – | –
Nc1nc2cc(-c3ccc(Cl)c(C(=O)NCC(F)(F)C(O)c4cc(F)cc(F)c4)c3F)ccn2n1 (stereo not shown) [Example 188, 3-(2-amino-[1,2,4]triazolo[1,5-a]pyridin-7-yl)-6-chloro-N-(3-(3,5-difluorophenyl)-2,2-difluoro-3-hydroxypropyl)-2-fluorobenzamide] | 9400 nM | 6.3 nM | 0.3 nM | – | – | – | – | – | –
Nc1nc2cc(-c3ccc(C(F)F)c(C(=O)NCC(F)(F)[C@@H](O)c4ccc(F)cc4)c3F)ccn2n1 [Example 295, (S)-3-(2-amino-[1,2,4]triazolo[1,5-a]pyridin-7-yl)-N-(2,2-difluoro-3-(4-fluorophenyl)-3-hydroxypropyl)-6-(difluoromethyl)-2-fluorobenzamide] | > 15000 nM | 3.3 nM | – | 1.4 nM | – | – | – | – | –
Cc1ccc(-c2ccn3nc(N)nc3c2)c(F)c1C(=O)NCCC(O)c1ccc(C(F)(F)F)cc1 (single isomer, unassigned) [Example 57, 3-(2-amino-[1,2,4]triazolo[1,5-a]pyridin-7-yl)-2-fluoro-N-(3-hydroxy-3-(4-(trifluoromethyl)phenyl)propyl)-6-methylbenzamide] | > 15000 nM | 3.1 nM | 1.9 nM | – | – | – | – | – | –
Cc1cc(F)c(-c2ccn3nc(N)nc3c2)cc1C(=O)NCCC(O)c1ccc(F)cc1 (single isomer, unassigned) [Example 10, 5-(2-amino-[1,2,4]triazolo[1,5-a]pyridin-7-yl)-4-fluoro-N-(3-(4-fluorophenyl)-3-hydroxypropyl)-2-methylbenzamide] | > 15000 nM | 9.4 nM | 2.5 nM | – | 9.4 nM | 2.5 nM | – | – | –
Nc1nc2cc(-c3ccc(Cl)c(C(=O)NCCC(O)c4ccc(Cl)cn4)c3F)ccn2n1 (single isomer, unassigned) [Example 83, 3-(2-amino-[1,2,4]triazolo[1,5-a]pyridin-7-yl)-6-chloro-N-(3-(5-chloropyridin-2-yl)-3-hydroxypropyl)-2-fluorobenzamide] | 11000 nM | 29 nM | 17 nM | – | – | – | – | – | –
Cc1ccc(-c2ccn3nc(N)nc3c2)cc1C(=O)NCC[C@H](O)c1ccc(Cl)cc1 [Example 149, (S)-5-(2-amino-[1,2,4]triazolo[1,5-a]pyridin-7-yl)-N-(3-(4-chlorophenyl)-3-hydroxypropyl)-2-methylbenzamide] | > 15000 nM | 8.2 nM | – | – | 8.2 nM | – | 1.3 nM | 1.3 nM | –
Cc1ccc(-c2ccn3nc(N)nc3c2)c(F)c1C(=O)NCCC(O)c1ccccc1F (single isomer, unassigned) [Example 70, 3-(2-amino-[1,2,4]triazolo[1,5-a]pyridin-7-yl)-2-fluoro-N-(3-(2-fluorophenyl)-3-hydroxypropyl)-6-methylbenzamide] | > 15000 nM | 11 nM | 8.1 nM | – | – | – | – | – | –
Cc1ccc(-c2ccn3nc(N)nc3c2)c(F)c1C(=O)NCCC(O)c1ccc(Cl)c(Cl)c1 (single isomer, unassigned) [Example 33, 3-(2-amino-[1,2,4]triazolo[1,5-a]pyridin-7-yl)-N-(3-(3,4-dichlorophenyl)-3-hydroxypropyl)-2-fluoro-6-methylbenzamide] | > 15000 nM | 1 nM | – | 0.7 nM | – | – | – | – | –
C#Cc1ccc([C@@H](O)CCNC(=O)c2c(C)ccc(-c3ccn4nc(N)nc4c3)c2F)cc1 [Example 142, 3-{2-amino-[1,2,4]triazolo[1,5-a]pyridin-7-yl}-N-[(3S)-3-(4-ethynylphenyl)-3-hydroxypropyl]-2-fluoro-6-methylbenzamide] | > 15000 nM | 3.3 nM | – | 2.5 nM | – | – | – | – | –
COc1ccc(-c2ccn3nc(N)nc3c2)c(F)c1C(=O)NCC[C@@H](O)c1ccc(Cl)cc1 [Example 148, (R)-3-(2-amino-[1,2,4]triazolo[1,5-a]pyridin-7-yl)-N-(3-(4-chlorophenyl)-3-hydroxypropyl)-2-fluoro-6-methoxybenzamide] | – | 8.3 nM | – | 17 nM | – | – | – | – | 5000 nM
COc1cc(Cl)ccc1C(O)CCNC(=O)c1c(C)ccc(-c2ccn3nc(N)nc3c2)c1F (single isomer, unassigned) [Example 65, 3-(2-amino-[1,2,4]triazolo[1,5-a]pyridin-7-yl)-N-(3-(4-chloro-2-methoxyphenyl)-3-hydroxypropyl)-2-fluoro-6-methylbenzamide] | > 15000 nM | 28 nM | – | 27 nM | – | – | – | – | –
COc1ccc(-c2ccn3nc(N)nc3c2)c(F)c1C(=O)NCC(F)(F)C(O)c1ccc(Cl)c(Cl)c1 (stereo not shown) [Example 267, 3-{2-amino-[1,2,4]triazolo[1,5-a]pyridin-7-yl}-N-[3-(3,4-dichlorophenyl)-2,2-difluoro-3-hydroxypropyl]-2-fluoro-6-methoxybenzamide] | > 15000 nM | 2.8 nM | 1 nM | – | – | – | – | – | –
COc1ccc(-c2ccn3nc(N)nc3c2)c(F)c1C(=O)NCC(F)(F)C(O)c1ccc(Cl)c(Cl)c1 (stereo not shown) [Example 268, 3-{2-amino-[1,2,4]triazolo[1,5-a]pyridin-7-yl}-N-[3-(3,4-dichlorophenyl)-2,2-difluoro-3-hydroxypropyl]-2-fluoro-6-methoxybenzamide] | 8800 nM | 3.8 nM | 4.3 nM | – | – | – | – | – | –
Cc1ccc(-c2ccn3nc(N)nc3c2)c(F)c1C(=O)NCC(F)(F)[C@H](O)c1ccc(F)cc1 (single isomer, unassigned) [Example 31] | > 15000 nM | 2.4 nM | – | 0.8 nM | – | – | – | – | –
[2H]C([2H])(CC([2H])(O)c1ccc(Cl)cc1)NC(=O)c1c(F)ccc(-c2ccn3nc(N)nc3c2)c1F (single isomer, unassigned) [Example 250, 3-(2-amino-[1,2,4]triazolo[1,5-a]pyridin-7-yl)-N-(3-(4-chlorophenyl)-3-hydroxypropyl-1,1,3-d3)-2,6-difluorobenzamide] | > 15000 nM | 13 nM | – | 21 nM | – | – | – | – | –
Nc1nc2cc(-c3ccc(Cl)c(C(=O)NCC(F)(F)C(O)c4ccc(Cl)c(Cl)c4)c3F)ccn2n1 (single isomer, unassigned) [Example 265, 3-{2-amino-[1,2,4]triazolo[1,5-a]pyridin-7-yl}-6-chloro-N-[3-(3,4-dichlorophenyl)-2,2-difluoro-3-hydroxypropyl]-2-fluorobenzamide] | > 15000 nM | 4.1 nM | 3.6 nM | – | – | – | – | – | –
[2H]C([2H])([2H])C(O)(c1ccc(F)cc1)C(F)CNC(=O)c1c(Cl)ccc(-c2ccn3nc(N)nc3c2)c1F (single isomer, unassigned) [Example 239, 3-(2-amino-[1,2,4]triazolo[1,5-a]pyridin-7-yl)-6-chloro-2-fluoro-N-(2-fluoro-3-(4-fluorophenyl)-3-hydroxybutyl-4,4,4-d3)benzamide] | > 15000 nM | 55 nM | 26 nM | – | – | – | – | – | –
Cc1ccc(-c2ccn3nc(N)nc3c2)c(F)c1C(=O)NCCC(O)c1ccccc1F (single isomer, unassigned) [Example 71, 3-(2-amino-[1,2,4]triazolo[1,5-a]pyridin-7-yl)-2-fluoro-N-(3-(2-fluorophenyl)-3-hydroxypropyl)-6-methylbenzamide] | > 15000 nM | 18 nM | 21 nM | – | – | – | – | – | –
Cc1ccc(-c2ccn3nc(N)nc3c2)c(F)c1C(=O)NCCC(O)C1CCCC1 (stereo not shown) [Example 248, 3-(2-amino-[1,2,4]triazolo[1,5-a]pyridin-7-yl)-N-(3-cyclopentyl-3-hydroxypropyl)-2-fluoro-6-methylbenzamide] | > 15000 nM | 22 nM | 20 nM | – | – | – | – | – | –
Cc1cc(F)c(-c2ccn3nc(N)nc3c2)cc1C(=O)NCC(F)(F)C(O)c1ccc(F)cc1 (single isomer, unassigned) [Example 98, 5-(2-amino-[1,2,4]triazolo[1,5-a]pyridin-7-yl)-N-(2,2-difluoro-3-(4-fluorophenyl)-3-hydroxypropyl)-4-fluoro-2-methylbenzamide] | > 15000 nM | 2.8 nM | 1.2 nM | – | – | – | – | – | –
Cc1cc(F)c(-c2ccn3nc(N)nc3c2)c(F)c1C(=O)NCC[C@@H](O)c1ccc(Cl)cc1 [Example 278, (R)-3-(2-amino-[1,2,4]triazolo[1,5-a]pyridin-7-yl)-N-(3-(4-chlorophenyl)-3-hydroxypropyl)-2,4-difluoro-6-methylbenzamide] | > 15000 nM | 13 nM | – | 38 nM | – | – | – | – | –

— patent US11767322B2 (BRISTOL-MYERS SQUIBB COMPANY, priority 2020, dated 2023)
